For assay [1], the system named is caspase-3. The format is cell-based, human. Particulars: HepG2 infected with vACE-NT; normoxia; 72 h after administering DOX.
Assay [2] has as its system caspase-3. The format is cell-based. Particulars: FLC4 infected with vACE-NT; normoxia; 72 h after administering DOX.
Assay [3] relates to uveal melanoma cells (Mel270, OMM2.3, OMM2.5, OMM1, 92.1). The format is cell-based.
A further assay relates to HepG2 tumors. The format is in vivo, SCID mice.

Where two headings read alike, the source gives them in different places.

Regarding `COc1cccc2c1C(=O)c1c(O)c3c(c(O)c1C2=O)C[C@@](O)(C(=O)CO)C[C@@H]3O[C@H]1C[C@H](N)[C@H](O)[C@H](C)O1` [DOX, Doxorubicin], the “increase of caspase-3 activation” value in the assay with caspase-3 [1] is on record as 35 fold; in the assay with caspase-3 [2] it was 12 fold. Moreover, the “cell death in uveal melanoma cells” value in assay [3] is “induce cell death”. For the same compound, the “reduction of tumor growth rate” value in the assay with HepG2 tumors (DOX 55 mg/kg IP twice a week, tumors infected with vACE-NT, light emission day 42 vs day 14) was 45%. Further, in the assay with HepG2 tumors (DOX 75 mg/kg IP twice a week, even in vACE-NT infected tumors), the effect on tumors result was “almost completely eradicate the tumors”. Besides, in the assay with HepG2 tumors (all tumors (vACE-NT, vACE-CREB, vACE-X3 infected), DOX 55 mg/kg), the “growth rate of tumors on addition of DOX” value is “reduced the growth rate of all tumors”.

Values taken from patent US20170247693A1 (priority 2016, published 2017).
